Tests used:
[1] = tested on: cAMP levels in the airways; assay: cAMP extraction and quantification in trachea and lungs of treated mice; format: in vivo, BALB/C mice; details: intra-tracheal, 1.5 μg/mouse, 30 minutes; vs PBS or P1 control peptide
Experimental: Lungs and trachea were explanted from animals following euthanasia, pulverized in liquid nitrogen and used for cold extraction of cAMP with 6% trichloroacetic acid. Samples were sonicated for 10 seconds and centrifuged at 13000 rpm at 4° C. for 15 minutes. Supernatants were washed four times with five volumes of diethyl ether saturated with water and lyophilized. cAMP content was detected with an Amersham cAMP BioTrak Enzymeimmunoassay System (GE Healthcare Life Sciences, Pittsburgh, USA, product code: RPN225), according to the manufacturer's protocol.
Wild-type BALB/C mice were injected by the intra-tracheal route with 1.5 μg of the Trojan peptide derived from PI3Kγ conjugated to fluorescein or vehicle, in a final volume of 70 μL of PBS. After 30 minutes, animals were anesthetized, the trachea and lungs were insufflated with PBS, extracted and frozen in OCT. Cryosections of 10 microns were obtained with a Leica CM1850 cryostat (Leica Microsystems GmbH, Wetzlar, Germany) and fluorescence was acquired with a Zeiss Observer-Z1, equipped with an Apotome module (Carl Zeiss, Oberkochen, Germany).

[2] = tested on: lung inflammation in mice sensitized with ovalbumin; assay: Analysis of airway inflammation in asthmatic mice; format: in vivo, BALB/C mice; details: OVA-sensitized mice, vs P1
Experimental: Ovalbumin (100 μg) (OVA, Sigma-Aldrich, St. Louis, Mo.), complexed with aluminum potassium sulfate (1 mg, alum) was administered intraperitoneally (i.p.) on days 1 and 14, and intra-nasally (i.n.) (50 μg OVA in 50 μl PBS) on days 14, 25, 26, and 27. Control mice received i.p. injections of alum and i.n. injections of PBS only. Airway hyperreactivity induced by inhaled methacholine was measured at 24 hours after the final dose of OVA (Day 28).
Wild-type BALB/C mice were treated, by intra-tracheal instillation, with 25 μg of the Trojan peptide derived from PI3Kγ or equimolar amounts of P1 control peptide, in a final volume of 70 μL of phosphate-buffered saline (PBS), before each intranasal administration of ovalbumin (days 14, 25, 26, and 27 of the protocol of immunization with ovalbumin). At 24 hours after the final injection (day 28), mice were anesthetized (sodium pentobarbital, 70-90 mg/kg, i.p.) and the tracheas incised and cannulated. The airways were washed with 2.5 ml of phosphate-buffered saline solution (PBS). The total number of cells in the bronchoalveolar lavage (BAL) was determined with a Neubauer hemocytometer. A volume of 50 μL of BAL was centrifuged onto cytospin glass slides at 400 rpm at room temperature for 5 minutes and stained with a Diff-Quick system (LabAids, Ronkonkoma, USA). A total of 100 cells per slide were counted and classified as neutrophils, macrophages, lymphocytes and eosinophils on the basis of morphological criteria. Erythrocytes and epithelial cells were ignored and the results were expressed as cells/ml.
To assess the peribronchial inflammation, the lungs of a group of animals that had not been subjected to bronchoalveolar lavage were explanted, fixed in a solution of 4% paraformaldehyde (PFA) for 24 hours at 4° C. and embedded in paraffin. Slices that were 5 μm-thick, deparaffinized, stained with a hematoxylin-eosin solution (Bio-Optica, Milano, Italy), dehydrated and mounted with glass coverslips. The extent of peribronchial inflammation was classified as follows: 0—normal; 1—few inflammatory cells; 3—a thick ring of inflammatory cells.
To evaluate the presence of goblet cells, lung slices were stained with periodic acid-Schiff's reagent (PAS) (Bio-Optica, Milano, Italy) and the percentage of PAS-positive cells was calculated by counting the number of PAS-positive epithelial cells and total epithelial cells.

[3] = 25 μg/mouse intra-tracheal before each intranasal OVA

“RQIKIWFQNRRMKWKKGKATHRSPGQIHLVQRHPPSEESQAF (fusion peptide comprising SEQ ID No.1 and SEQ ID No.3) [Trojan peptide derived from PI3Kγ]” was tested. Which “cAMP levels in the trachea and in the lungs, higher than controls” value [1] did it give?
Its value is 30%.

What about the “number of goblet cells (PAS-positive)” value [2, 3] of the same sequence?
Its value is “significantly reduced”.

What about the “number of neutrophils in the bronchoalveolar lavage” value [2, 3] of the same sequence?
Its value is “significantly lower”.

What about the peribronchial inflammatory infiltrate [2, 3] of the same sequence?
Its peribronchial inflammatory infiltrate is “significantly reduced”.

What about the “eosinophils in the bronchoalveolar lavage” value ([2]; 25 μg/mouse) of the same sequence?
The value was “unchanged”.

What about the “lymphocytes in the bronchoalveolar lavage” value ([2]; 25 μg/mouse) of the same sequence?
The value was “unchanged”.

And the “macrophages in the bronchoalveolar lavage” value ([2]; 25 μg/mouse)?
The value was “unchanged”.

Reference: US11352400B2, “PI3K gamma inhibitor peptide for treatment of respiratory system diseases” (Kither Biotech S.r.I., priority 2014, dated 2022)
